# Measured values taken from patent publication US10336735B2, “Small molecule inhibitors of fibrosis” (THE CALIFORNIA INSTITUTE FOR BIOMEDICAL RESEARCH, priority 2014, dated 2019).
# Tested on: primary human lung fibroblasts and primary rodent HSCs
# Experiment: High content imaging assay (α-SMA staining, cell morphology) of fibroblast to myofibroblast transdifferentiation, confirmed by Western blot and RT-PCR
# Conditions: Homo sapiens, Fibroblast; imaging and western based activity
# Text: High content imaging assays have been established, using primary human lung fibroblasts and primary rodent HSCs, that enable the identification of small molecules that either inhibit myofibroblast formation/activation or induce the reversion of activated myofibroblasts to a quiescent fibroblast state. Conditions, involving serum starvation and subsequent TGF-β treatment, have been identified that facilitate robust in vitro transdifferentiation in a miniaturized (384 well plate) format that is amenable to high throughput small molecule screening. The inhibition assay is based on α-SMA immunofluorescent staining and cell morphology changes associated with fibroblast to myofibroblast transdifferentiation, Using the selective ALK-5 TGF-β1 receptor inhibitor ([…]) as a positive control, the inhibition assay has been used to initiate a screen of a collection of ˜100,000 small molecules that consists of bioactive small molecules and a diversity set that has been assembled based on 2D and 3D structural diversity and inherent “drug-likeness” properties. Preliminary screening led to the identification of multiple previously identified anti-fibrotic molecules.
# A high content imaging assay, based on α-SMA staining and cell morphological changes associated with fibroblast to myofibroblast transdifferentiation, was established using primary human lung fibroblasts and primary rodent HSCs. Conditions, involving serum starvation and subsequent TGF-β treatment, were identified that facilitate robust in vitro transdifferentiation in a miniaturized (384 well plate) format that is amenable to high throughput small molecule screening. A selective ALK-5 TGF-β1 receptor inhibitor (SB-431542) was used as a positive control. […] This assay was used to evaluate compounds of Formula (I), (Ia), (II), (IIa), (III), (IIIa), (IV), (IVa), (IVb), (V), (Va), (VI), (VIa), (VIb), (VIc), (VII), (VIIa), (VIII), (VIIIa), (IX), (IXa), (X), or (Xa) generated from medicinal chemistry efforts.
# The activity of Itraconazole and compounds of Formula (I), (Ia), (II), (IIa), (III), (IIIa), (IV), (IVa), (IVb), (V), (Va), (VI), (VIa), (VIb), (VIc), (VII), (VIIa), (VIII), (VIIIa), (IX), (IXa), (X), or (Xa) was confirmed by analyzing changes in gene expression of multiple genes associated with fibroblast to myofibroblast transdifferentiation using biochemical methods (i.e., Western blot and RT-PCR). These 4-day assays were used to evaluate sets of 6 compounds at a time in 4-point dose response fashion.
# The EC50 for (imaging and western based) activity is graded as: +++=<500 nM; ++=500 nM to 5 μM; +=5 to 30 μM); −=>30 μM; NT=Not Tested.
row,SMILES,EC50 [µM]
1,CCC(C)n1ncn(-c2ccc(N3CCN(c4ccc(OC[C@@H]5CO[C@@](Cn6cccn6)(c6ccccc6OC)O5)cc4)CC3)cc2)c1=O (some centres unmarked) [Compound 85],0.5 to 5
2,CCC(C)n1ncn(-c2ccc(N3CCN(C[C@@H]4CO[C@@](Cn5nccn5)(c5ccc(Cl)cc5Cl)O4)CC3)cc2)c1=O (some centres unmarked) [Compound 7],> 30
3,CCCC(C)n1ncn(-c2ccc(N3CCN(c4ccc(OC[C@@H]5CO[C@@](Cn6nccn6)(c6ccc(Cl)cc6Cl)O5)cc4)CC3)cc2)c1=O (some centres unmarked) [Compound 12],0.5 to 5
4,CCC(C)n1ncn(-c2ccc(N3CCN(c4ccc(OC[C@@H]5CO[C@@](Cn6nccn6)(c6ccc(Cl)cc6Cl)O5)cn4)CC3)cc2)c1=O (some centres unmarked) [Compound 53],0.5 to 5
5,CCC(C)n1ncn(-c2ccc(N3CCN(c4ccc(OC[C@@H]5CO[C@](Cc6ccnnc6)(c6ccc(C#N)cc6)O5)cc4)CC3)cc2)c1=O (some centres unmarked) [Compound 111],5 to 30
6,CCC(C)n1ncn(-c2ccc(N3CCN(c4ccc(OC[C@@H]5CO[C@](Cn6nccn6)(c6ccccc6)O5)cc4)CC3)cc2)c1=O (some centres unmarked) [Compound 186],5 to 30
7,CCC(C)n1ncn(-c2ccc(N3CCN(c4ccc(OC[C@@H]5CO[C@@](Cn6cccn6)(c6cc(Cl)cc(Cl)c6)O5)cc4)CC3)cc2)c1=O (some centres unmarked) [Compound 80],0.5 to 5
8,CCC(C)n1ncn(-c2ccc(N3CCN(c4ccc(OC[C@@H]5CO[C@@](Cn6cccn6)(c6ccc(C#N)cc6C)O5)cc4)CC3)cc2)c1=O (some centres unmarked) [Compound 51],< 0.5
9,"CC[C@@H](C)n1ncn(-c2ccc(N3CCN(c4ccc(OC[C@H]5CO[C@](Cn6nccn6)(c6ccccc6)O5)cc4)CC3)cc2)c1=O [Compound 182, 4-(4-(4-(4-(((2R,4S)-2-((2H-1,2,3-triazol-2-yl)methyl)-2-phenyl-1,3-dioxolan-4-yl)methoxy)phenyl)piperazin-1-yl)phenyl)-(R)-1-sec-butyl-1H-1,2,4-triazol-5(4H)-one]",< 0.5
10,CCC(CC)n1ncn(-c2ccc(N3CCN(c4ccc(OC[C@@H]5CO[C@@](Cn6nccn6)(c6ccc(Cl)cc6Cl)O5)cc4C#N)CC3)cc2)c1=O [Compound 152],5 to 30
11,CCC(C)n1ncn(-c2ccc(N3CCN(c4ccc(OC[C@@H]5CO[C@@](Cn6nccn6)(c6ccccc6)C5)cc4)CC3)cc2)c1=O (some centres unmarked) [Compound 143],5 to 30
12,CCC(C)n1ncn(-c2ccc(N3CCN(c4ccc(OCCCO[C@@H](Cn5nccn5)c5ccccc5)cc4)CC3)cc2)c1=O (some centres unmarked) [Compound 142],> 30
13,CCC(C)n1ncn(-c2ccc(N3CCN(c4ccc(OC[C@@H]5CO[C@@](Cn6nccn6)(c6ccc(Cl)cc6Cl)O5)cc4)CC3)cc2F)c1=O (some centres unmarked) [Compound 70],0.5 to 5
14,CCC(CC)n1ncn(-c2ccc(N3CCN(c4ccc(OC[C@H]5CO[C@](Cn6nccn6)(c6ccc(Cl)cc6Cl)O5)cc4F)CC3)cc2)c1=O [Compound 165],< 0.5
15,CCC(C)n1ncn(-c2ccc(N3CCN(c4ccc(OC[C@@H]5CO[C@@](Cn6cccn6)(c6cccc(Cl)c6)O5)cc4)CC3)cc2)c1=O (some centres unmarked) [Compound 82],< 0.5
16,CCC(C)n1ncn(-c2ccc(N3CCN(c4ccc(OC[C@@H]5CO[C@@](Cc6ccnnc6)(c6cccc(Cl)c6)O5)cc4)CC3)cc2)c1=O (some centres unmarked) [Compound 124],< 0.5
17,CCC(C)n1ncn(-c2ccc(N3CCN(c4ccc(OC[C@@H]5CO[C@@](Cn6cccn6)(c6ccc(C#N)cc6)O5)cc4)CC3)cc2)c1=O (some centres unmarked) [Compound 89],0.5 to 5
18,CCC(C)n1ncn(-c2ccc(N3CCN(c4ccc(OC[C@@H]5CO[C@@](Cn6nccn6)(c6ccc(Cl)cc6Br)O5)cc4)CC3)cc2)c1=O (some centres unmarked) [Compound 31],< 0.5
19,"CC[C@H](C)n1ncn(-c2ccc(N3CCN(c4ccc(OC[C@@H]5CO[C@@](Cn6nccn6)(c6ccccc6)O5)cc4)CC3)cc2)c1=O [Compound 180, 4-(4-(4-(4-(((2S,4R)-2-((2H-1,2,3-triazol-2-yl)methyl)-2-phenyl-1,3-dioxolan-4-yl)methoxy)phenyl)piperazin-1-yl)phenyl)-(S)-1-sec-butyl-1H-1,2,4-triazol-5(4H)-one]",< 0.5
20,CCC(C)n1ncn(-c2ccc(N3CCN(c4ccc(OC[C@H]5CO[C@](Cn6nccn6)(c6ccccc6)C5)cc4F)CC3)cc2)c1=O (some centres unmarked) [Compound 148],> 30
